Source: publication PMC4513211, “Inhibition of voltage-gated sodium channels by sumatriptan bioisosteres” (Frontiers in Pharmacology, 2015)

Key:
hNav1.4 [1] = molecular target: T1, hNav1.4 (Homo sapiens, UniProt P35499); assay: whole-cell patch clamp, peak INa; format: cell-based; details: read-out: 0.1 Hz / IC50
T1 construct: gene SCN4A
Text: (§1) whole-cell patch clamp, peak INa on hNav1.4

hNav1.4 [2] = molecular target: T2, hNav1.4 (Homo sapiens, UniProt P35499, F1586C); assay: whole-cell patch clamp, peak INa; format: cell-based; details: read-out: 0.1 Hz / IC50
T2 construct: gene SCN4A
T2 sequence (P35499 whole entry F1586C): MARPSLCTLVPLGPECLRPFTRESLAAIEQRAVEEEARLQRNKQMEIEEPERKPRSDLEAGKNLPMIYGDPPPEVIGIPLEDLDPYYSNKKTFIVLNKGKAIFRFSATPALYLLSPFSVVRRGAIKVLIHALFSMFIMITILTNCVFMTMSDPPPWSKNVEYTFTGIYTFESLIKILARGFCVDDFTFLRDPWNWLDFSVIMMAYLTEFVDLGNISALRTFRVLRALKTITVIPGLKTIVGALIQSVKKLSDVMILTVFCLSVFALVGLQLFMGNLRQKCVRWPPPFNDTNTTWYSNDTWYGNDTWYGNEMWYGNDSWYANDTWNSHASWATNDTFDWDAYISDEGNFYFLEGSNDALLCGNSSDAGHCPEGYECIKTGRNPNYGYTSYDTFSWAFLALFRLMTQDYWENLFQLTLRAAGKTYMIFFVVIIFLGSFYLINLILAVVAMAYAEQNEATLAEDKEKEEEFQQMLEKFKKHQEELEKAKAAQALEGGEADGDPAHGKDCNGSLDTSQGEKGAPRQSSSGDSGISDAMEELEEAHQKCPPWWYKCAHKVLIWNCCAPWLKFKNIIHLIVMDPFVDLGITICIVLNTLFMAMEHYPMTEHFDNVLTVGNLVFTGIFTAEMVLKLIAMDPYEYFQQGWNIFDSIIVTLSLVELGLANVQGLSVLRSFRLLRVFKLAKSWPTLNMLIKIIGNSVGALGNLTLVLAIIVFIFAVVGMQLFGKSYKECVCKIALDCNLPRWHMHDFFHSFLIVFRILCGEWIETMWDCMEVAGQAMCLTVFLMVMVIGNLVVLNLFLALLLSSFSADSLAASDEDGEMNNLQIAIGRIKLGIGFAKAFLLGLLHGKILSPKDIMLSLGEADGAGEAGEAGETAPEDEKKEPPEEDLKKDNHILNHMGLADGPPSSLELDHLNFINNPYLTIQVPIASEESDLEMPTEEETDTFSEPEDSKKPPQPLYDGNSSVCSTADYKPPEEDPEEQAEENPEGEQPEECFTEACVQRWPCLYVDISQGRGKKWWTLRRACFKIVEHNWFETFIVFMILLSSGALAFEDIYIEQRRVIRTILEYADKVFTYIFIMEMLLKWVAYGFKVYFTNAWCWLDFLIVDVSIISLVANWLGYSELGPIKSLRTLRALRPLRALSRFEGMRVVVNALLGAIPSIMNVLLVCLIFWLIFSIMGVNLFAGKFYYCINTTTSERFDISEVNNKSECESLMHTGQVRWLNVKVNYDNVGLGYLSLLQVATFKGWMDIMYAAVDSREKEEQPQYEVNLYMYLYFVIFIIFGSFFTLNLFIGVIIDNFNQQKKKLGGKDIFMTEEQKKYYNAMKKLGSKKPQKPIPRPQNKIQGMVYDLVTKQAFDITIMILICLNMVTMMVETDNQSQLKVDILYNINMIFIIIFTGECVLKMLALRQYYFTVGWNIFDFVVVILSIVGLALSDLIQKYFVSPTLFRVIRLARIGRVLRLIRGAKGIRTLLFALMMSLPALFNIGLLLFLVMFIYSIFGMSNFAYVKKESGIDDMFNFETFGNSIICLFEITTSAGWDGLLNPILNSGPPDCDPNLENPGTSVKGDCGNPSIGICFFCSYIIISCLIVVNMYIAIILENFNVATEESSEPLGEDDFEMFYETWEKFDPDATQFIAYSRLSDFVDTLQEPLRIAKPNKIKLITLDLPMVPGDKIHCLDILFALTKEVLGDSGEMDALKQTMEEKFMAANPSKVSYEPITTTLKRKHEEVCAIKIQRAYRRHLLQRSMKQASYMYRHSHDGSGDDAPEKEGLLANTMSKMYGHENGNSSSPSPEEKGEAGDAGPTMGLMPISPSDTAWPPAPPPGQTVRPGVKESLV
Text: as §1

T1 sequence (P35499 whole entry): as the sequence (P35499 whole entry F1586C) above, with C1586F counted along it

Compound: CNC[C@H](C)Oc1cccc2ccccc12 [(S)-22b]
- IC50 (hNav1.4 [1]): 51 ± 2 µM
- IC50 (hNav1.4 [2]): 215 ± 5 µM
